These are literature values, as cited in patent publication US11169101B2, “Oligosaccharide compositions and methods of use thereof” (Kaleido Biosciences, Inc., priority 2018, dated 2021).

The structures appear in SMILES notation.

The conditions of the data set: administered in combination with lactulose.

As to `CO[C@H]1/C=C/O[C@@]2(C)Oc3c(C)c(O)c4c(O)c(c5c(nc6cc(C)ccn65)c4c3C2=O)NC(=O)/C(C)=C\C=C\[C@H](C)[C@H](O)[C@@H](C)[C@@H](O)[C@@H](C)[C@H](OC(C)=O)[C@@H]1C` [rifaximin], the “reduction of episodes of OHE” value is reported as “approximately 50%”.
